One test has as its target T1, PDE4B1 (Homo sapiens, UniProt Q07343).
T1 construct: made in house; host or cells: SF21 insect cells (baculovirus; virus prepared in SF9 cells)
Nature of the test: Inhibition of PDE4B1 activity (SPA, [3H]cAMP). In kind it is biochemical. To be noted: recombinant PDE4B1, 0.5 μM cAMP; binned: below 8 / between 8 and 9; read-out: PDE4B1 inhibitory values measured as −logIC50 (converted). The method, then: The PDE4B1 (GB no. L20966) was a gift of Prof. M. Conti (Stanford University, USA). It was amplified from the original plasmid (pCMV5) via PCR with primers Rb18 (5′-[…]-3′) and Rb10 (5′-[…]-3′) and cloned into the pCR-Bac vector (Invitrogen, Groningen, NL).
The recombinant baculovirus was prepared by means of homologous recombination in SF9 insect cells. The expression plasmids were cotransfected with Baculo-Gold DNA (Pharmingen, Hamburg) using a standard protocol (Pharmingen, Hamburg). Wt virus-free recombinant virus supernatants were selected using plaque assay methods. After that, high-titre virus supernatants were prepared by amplifying 3 times. PDE4B1 was expressed in SF21 cells by infecting 2×10^6 cells/ml with an MOI (multiplicity of infection) between 1 and 10 in the serum-free SF900 medium (GIBCO Life Technologies, Karlsruhe, Germany). The cells were cultured at 28° C. for 48-72 hours, after which they were pelleted for 5-10 min at 1000×g and 4° C.
The SF21 insect cells were resuspended, at a concentration of approx. 10^7 cells/ml, in ice-cold (4° C.) homogenization buffer (20 mM Tris, pH 8.2, containing the following additions: 140 mM NaCl, 3.8 mM KCl, 1 mM EGTA, 1 mM MgCl2, 10 mM β-mercaptoethanol, 2 mM benzamidine, 0.4 mM Pefablock, 10 μM leupeptin, 10 μM pepstatin A, 5 μM trypsin inhibitor) and disrupted by ultrasonication. The homogenate was then centrifuged for 10 min at 1000×g and the supernatant was stored at −80° C. until subsequent use (see below). The protein content was determined by the Bradford method (BioRad, Munich) using BSA (Bovine serum albumin) as the standard.
PDE4B1 activities were measured in a 96-well platform using SPA (scintillation proximity assay) yttrium silicate beads (RPNQ1050 from GE Healthcare). In a first step the PDE activity operated hydrolysis of either [^3H] cAMP (substrate) into [^3H] 5′AMP. In a second step substrate and product were distinguished following addition of SPA yttrium silicate beads. Indeed, in the presence of zinc sulphate the linear [^3H] […] Close proximity of bound [^3H] […] The test volume was 100 μl and finally contained 20 mM Tris buffer (pH 7.4), 0.1 mg/ml of BSA, 5 mM Mg^2+, 0.5 μM cAMP (including about 50,000 cpm of [3H]cAMP) as substrate, 1 μl of the respective substance dilution in DMSO and sufficient recombinant PDE (1000×g supernatant, see above) to ensure that 10-20% of the cAMP was converted under the said experimental conditions. […] After a preincubation of 5 min at 37° C., the reaction was commenced by adding the substrate (cAMP) and the assays were incubated for a further 15 min. Reactions were terminated by adding SPA beads (50 μl). In agreement with the manufacturer's instructions, the SPA beads had previously been resuspended in water, but were then diluted 1:3 (v/v) in water. This diluted solution further contained 3 mM IBMX (isobutylmethylxanthine) to ensure a complete block of PDE activity. Once the beads were sedimented (>30 min), the MTP's (microtiter plate) were analyzed in commercially available luminescence detection devices. The corresponding IC50 values of the compounds for inhibition of PDE4B1 activity were determined from the concentration-effect curves by means of non-linear regression.
For the following compounds PDE4B1 inhibitory values [measured as −logIC50 (mol/l)] below 8 and between 8 and 9 have been determined. The numbers of the compounds correspond to the numbers of the examples.

For a further test, the target named is T2, human PDE5 (Homo sapiens, UniProt O76074).
T2 construct: from tissue; host or cells: human platelets from fresh donor blood (platelet lysate)
Nature of the test: Inhibition of PDE5 activity (SPA, [3H]cGMP, platelet lysate). In kind it is biochemical. Particulars: 0.5 μM cGMP, binned: below 8 / between 8 and 9, read-out: PDE5 inhibitory values measured as −logIC50 (converted). The method, then: As a source for human PDE5, platelets were used. For that purpose, 150 ml fresh blood from human donors anticoagulated with citrate [final concentration 0.3% (w/v)] was centrifuged at 200 g for 10 min to obtain the so-called platelet-rich-plasma (PRP) as a supernatant. 1/10 volume of ACD solution (85 mM Na3-citrate, 111 mM D-glucose, 71 mM citric acid, pH 4.4) was added to 9/10 volume of PRP. After centrifugation (1,400 g, 10 min) the cell pellet was resuspended in 3 ml homogenization buffer (NaCl 140 mM, KCl 3.8 mM, EGTA (ethylene glycol tetraacetic acid) 1 mM, MgCl2 1 mM, Tris-HCl 20 mM, beta-mercaptoethanol 1 mM, pH 8.2) plus protease-inhibitor mix resulting in final concentrations of 0.5 mM Pefablock (Roche), 10 μM Leupeptin, 5 μM Trypsine inhibitor, 2 mM Benzamidin and 10 μM Pepstatin A. The suspension was sonicated and thereafter centrifuged for 15 min at 10,000 g. The resulting supernatant (platelet lysate) was used for enzymatic assays.
PDE5 activities were measured in a 96-well platform using SPA (scintillation proximity assay) yttrium silicate beads (RPNQ1050 from GE Healthcare). In a first step the PDE activity operated hydrolysis of either [^3H] cGMP (substrate) into [^3H] 5′GMP. In a second step substrate and product were distinguished following addition of SPA yttrium silicate beads. Indeed, in the presence of zinc sulphate the linear [^3H] […] Close proximity of bound [^3H] […] The test volume was 100 μl and contained 20 mM Tris buffer (pH 7.4), 0.1 mg of BSA (bovine serum albumin)/ml, 5 mM Mg^2+, 1 μM motapizone (PDE3 Inhibitor), 10 nM PDE2 inhibitor 2-(3,4-dimethoxybenzyl)-7-[(1R,2R)-2-hydroxy-1-(2-phenylethyl)propyl]-5-methylimidazo[5,1-f][1,2,4]triazin-4(3H)-one, 0.5 μM cGMP (cyclic guanosine monophosphate) (including about 50,000 cpm of [3H]cGMP as a tracer) (substrate), 1 μl of the respective compound dilution in dimethylsulfoxide (DMSO) and sufficient PDE5-containing platelet lysat (10,000×g supernatant, see above) to ensure that 10-20% of the cGMP was converted under the said experimental conditions. […] After a preincubation of 5 min at 37° C., the reaction was commenced by adding the substrate (cGMP) and the assay was incubated for a further 15 min. The reaction was terminated by adding SPA beads (50 μl). In agreement with the manufacturer's instructions, the SPA beads had previously been resuspended in water, but were then diluted 1:3 (v/v) in water. This diluted solution also contained 3 mM 8-methoxymethyl-3-isobutyl-1-methylxanthine (IBMX) to ensure a complete block of PDE activity. Once the beads were sedimented (>30 min), the MTP's were analyzed in commercially available luminescence detection devices. The corresponding IC50 values of the compounds for inhibition of PDE activity were determined from the concentration-effect curves by means of non-linear regression.
For the following compounds PDE5 inhibitory values [measured as −logIC50 (mol/l)] below 8 and between 8 and 9 have been determined. The numbers of the compounds correspond to the numbers of the examples.

T1 sequence (Q07343 whole entry): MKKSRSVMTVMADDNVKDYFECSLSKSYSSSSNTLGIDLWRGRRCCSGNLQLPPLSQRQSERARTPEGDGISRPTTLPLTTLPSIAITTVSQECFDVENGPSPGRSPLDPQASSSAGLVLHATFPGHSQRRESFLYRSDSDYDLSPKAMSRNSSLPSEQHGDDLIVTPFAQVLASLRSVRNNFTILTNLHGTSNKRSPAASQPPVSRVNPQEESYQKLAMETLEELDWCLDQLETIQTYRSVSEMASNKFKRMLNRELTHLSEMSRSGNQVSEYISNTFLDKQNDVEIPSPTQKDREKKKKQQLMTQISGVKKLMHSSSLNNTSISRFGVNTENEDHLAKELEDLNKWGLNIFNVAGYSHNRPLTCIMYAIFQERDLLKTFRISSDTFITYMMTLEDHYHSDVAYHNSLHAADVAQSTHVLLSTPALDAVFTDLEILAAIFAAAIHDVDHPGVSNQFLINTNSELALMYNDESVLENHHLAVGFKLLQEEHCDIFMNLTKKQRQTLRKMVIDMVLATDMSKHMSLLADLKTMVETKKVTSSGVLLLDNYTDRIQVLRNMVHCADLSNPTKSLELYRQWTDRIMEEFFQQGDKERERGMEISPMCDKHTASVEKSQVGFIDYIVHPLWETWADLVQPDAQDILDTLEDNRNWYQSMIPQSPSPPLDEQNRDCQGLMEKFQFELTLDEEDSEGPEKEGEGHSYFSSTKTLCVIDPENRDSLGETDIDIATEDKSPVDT

For the compound `CCOc1cc2c(cc1OC)C(c1ccc(C(=O)N3CCC(n4c(=O)c5sc(-c6ccccc6)cc5n(Cc5ccc(OC)c(F)c5)c4=O)CC3)cc1)=N[C@@H]1CCSC[C@H]21` [Example 1, 3-(1-{4-[(4aR,10bR)-9-ethoxy-8-methoxy-3,4,4a,10b-tetrahydro-1H-thiopyrano[4,3-c]isoquinolin-6-yl]benzoyl}piperidin-4-yl)-1-(3-fluoro-4-methoxybenzyl)-6-phenylthieno[3,2-d]pyrimidine-2,4(1H,3H)-dione], the IC50 at PDE4B1 and at human PDE5 was 1 to 10 nM throughout.
Consider `CCOc1cc2c(cc1OC)C(c1cccc(C(=O)N3CCC(n4c(=O)c5sc(-c6ccccc6)cc5n(Cc5ccc(OC)c(F)c5)c4=O)CC3)c1)=N[C@@H]1CCSC[C@H]21` [Example 2, 3-[1-({3-[(4aR,10bR)-9-ethoxy-8-methoxy-3,4,4a,10b-tetrahydro-1H-thiopyrano[4,3-c]isoquinolin-6-yl]phenyl}carbonyl)piperidin-4-yl]-1-(3-fluoro-4-methoxybenzyl)-6-phenylthieno[3,2-d]pyrimidine-2,4(1H,3H)-dione], for which the IC50 at PDE4B1 and on human PDE5 was 1 to 10 nM throughout.
With `CCOc1cc2c(cc1OC)C(c1ccc(C(=O)N3CCC(n4c(=O)c5sc(-c6ccccc6)cc5n(Cc5cc(F)c(OC)c(F)c5)c4=O)CC3)cc1)=N[C@@H]1CCSC[C@H]21` [Example 3, 1-(3,5-difluoro-4-methoxybenzyl)-3-[1-({4-[(4aR,10bR)-9-ethoxy-8-methoxy-3,4,4a,10b-tetrahydro-1H-thiopyrano[4,3-c]isoquinolin-6-yl]phenyl}carbonyl)piperidin-4-yl]-6-phenylthieno[3,2-d]pyrimidine-2,4(1H,3H)-dione], the IC50 on PDE4B1 and at human PDE5 was 1 to 10 nM throughout.
Regarding `CCOc1cc2c(cc1OC)C(c1ccc(C(=O)N3CCC(n4c(=O)c5sc(-c6ccccc6)cc5n(Cc5ccc(OC)c(F)c5F)c4=O)CC3)cc1)=N[C@@H]1CCSC[C@H]21` [Example 4, 1-(2,3-difluoro-4-methoxybenzyl)-3-[1-({4-[(4aR,10bR)-9-ethoxy-8-methoxy-3,4,4a,10b-tetrahydro-1H-thiopyrano[4,3-c]isoquinolin-6-yl]phenyl}carbonyl)piperidin-4-yl]-6-phenylthieno[3,2-d]pyrimidine-2,4(1H,3H)-dione], the IC50 at PDE4B1 and at human PDE5 was 1 to 10 nM in each case.
For `CCOc1cc2c(cc1OC)C(c1ccc(C(=O)N3CCC(n4c(=O)c5sc(-c6ccccc6)cc5n(Cc5cc(OC)c(OC)cc5F)c4=O)CC3)cc1)=N[C@@H]1CCSC[C@H]21` [Example 5, 3-[1-({4-[(4aR,10bR)-9-ethoxy-8-methoxy-3,4,4a,10b-tetrahydro-1H-thiopyrano[4,3-c]isoquinolin-6-yl]phenyl}carbonyl)piperidin-4-yl]-1-(2-fluoro-4,5-dimethoxybenzyl)-6-phenylthieno[3,2-d]pyrimidine-2,4(1H,3H)-dione], the IC50 on PDE4B1 and at human PDE5 was 1 to 10 nM in each case.
As for `CCOc1cc2c(cc1OC)C(c1ccc(C(=O)N3CCC(n4c(=O)c5sc(-c6ccccc6)cc5n(Cc5ccc(C)c(F)c5)c4=O)CC3)cc1)=N[C@@H]1CCSC[C@H]21` [Example 6, 3-[1-({4-[(4aR,10bR)-9-ethoxy-8-methoxy-3,4,4a,10b-tetrahydro-1H-thiopyrano[4,3-c]isoquinolin-6-yl]phenyl}carbonyl)piperidin-4-yl]-1-(3-fluoro-4-methylbenzyl)-6-phenylthieno[3,2-d]pyrimidine-2,4(1H,3H)-dione], the IC50 at PDE4B1 is over 10 nM; at human PDE5 it was 1 to 10 nM.
The matching figures for `CCOc1cc2c(cc1OC)C(c1ccc(C(=O)N3CCC(n4c(=O)c5sc(-c6ccccc6)cc5n(Cc5ccccc5)c4=O)CC3)cc1)=N[C@@H]1CCSC[C@H]21` [Example 7, 1-benzyl-3-[1-({4-[(4aR,10bR)-9-ethoxy-8-methoxy-3,4,4a,10b-tetrahydro-1H-thiopyrano[4,3-c]isoquinolin-6-yl]phenyl}carbonyl)piperidin-4-yl]-6-phenylthieno[3,2-d]pyrimidine-2,4(1H,3H)-dione]: 1 to 10 nM and 1 to 10 nM.
On to `CCOc1cc2c(cc1OC)C(c1ccc(C(=O)N3CCC(n4c(=O)c5sc(-c6ccc7c(c6)OCO7)cc5n(Cc5ccc(OC)c(F)c5)c4=O)CC3)cc1)=N[C@@H]1CCSC[C@H]21` [Example 8, 6-(1,3-benzodioxol-5-yl)-3-[1-({4-[(4aR,10bR)-9-ethoxy-8-methoxy-3,4,4a,10b-tetrahydro-1H-thiopyrano[4,3-c]isoquinolin-6-yl]phenyl}carbonyl)piperidin-4-yl]-1-(3-fluoro-4-methoxybenzyl)thieno[3,2-d]pyrimidine-2,4(1H,3H)-dione], for which the IC50 at PDE4B1 and at human PDE5 was 1 to 10 nM throughout.
On to `CCOc1cc2c(cc1OC)C(c1ccc(C(=O)N3CCC(n4c(=O)c5sc(-c6ccc(F)cc6OC)cc5n(Cc5ccc(OC)c(F)c5)c4=O)CC3)cc1)=N[C@@H]1CCSC[C@H]21` [Example 9, 3-[1-({4-[(4aR,10bR)-9-ethoxy-8-methoxy-3,4,4a,10b-tetrahydro-1H-thiopyrano[4,3-c]isoquinolin-6-yl]phenyl}carbonyl)piperidin-4-yl]-1-(3-fluoro-4-methoxybenzyl)-6-(4-fluoro-2-methoxyphenyl)thieno[3,2-d]pyrimidine-2,4(1H,3H)-dione], for which the IC50 at PDE4B1 and at human PDE5 was 1 to 10 nM in each case.

The values are drawn from patent publication US20140113877A1, “NOVEL 3,4,4A,10B-TETRAHYDRO-1H-THIOPYRANO[4,3-C] ISOQUINOLINE COMPOUNDS” (Takeda GmbH, priority 2011, published 2014).
